Columns and labels:
Format in all cases: physicochemical
[1] = Example 3: 1-MCP headspace release versus wt-% 1-MCP/c/α-CD in UV-cured coating; conditions: 2.5 cm x 10 cm, 250 mL bottle, 20 μL water, 24 hours
Method: A 20 mL bottle was charged with 9.6 g of UV Coating VP 10169/60 MF-2NE (obtained from Verga GmbH of Aschau am Inn, Germany). Then 0.4 g of 1-MCP/α-cyclodextrin complex (4.7% 1-MCP obtained from AgroFresh of Spring House, Pa.) termed “1-MCP/c/α-CD” was added to the bottle. The bottle was then firmly capped and shaken by hand by hand until the blends appear uniformly dispersed, resulting in a 4.0 wt-% 1-MCP/c/α-CD blend. Three additional blends containing 2.0 wt-%, 1.0 wt-% and 0.5 wt-% of 1-MCP/c/α-CD were prepared in the same manner.
A rubber ink roller was used to deliver a thin (nominally 0.3 μm) coating to a 20 cm by 20 cm polyethylene extrusion coated paper sheet using the technique of Example 2.
Using razor blade, 2.5 cm×10 cm rectangles were cut from the coated portion of each of the sheets. Then the coated rectangular sheets were cured using the procedure of Example 2. Each cured, coated rectangle was placed in a 250 mL serum bottle. The bottle was then sealed with TEFLON® faced silicone septa. Then 20 μL of deionized water was injected into each bottle. […] Headspace was analyzed for 1-MCP 24 hours after the injection of water, using the technique employed in Example 2, and employing the 6-point 1-butene calibration curve as described in Example 2. Table 2 and FIG. 2 give the 24-hour average 1-MCP headspace concentration and standard deviation for each of the coated and cured rectangular sheets.

[2] = Example 7: 1-MCP permeation through polyethylene film from PSA label into 1,000 mL headspace; conditions: 11 cm diameter PSA label on 25 μm PE film, 1,000 mL kettle
From the text: This method is designed to measure the permeability of 1-MCP through polyethylene film into a confined, fixed volume headspace following release from a PSA label adhered to the surface of the film defining the fixed volume. The methodology simulates the headspace of a flexible film package having initially low relative humidity, wherein a PSA label containing 1-MCP is adhered to the outside of the package. As the humidity rises inside the package by respiration of fresh agricultural products, the water vapor increases in concentration and it diffuses through the package film to the outside environment but also into the PSA. Thus, as the water vapor diffuses through the film into the 1-MCP adhesive label adhered to the outside of the package film; 1-MCP released from the label adhesive into the fixed volume (headspace) was measured.
A coated, cured labelstock sheet made according to the procedure of Example 6 was cut by hand into an 11 cm diameter circle. Next the PET liner was removed from the label and the label was adhered via the PSA to a 13.5 cm diameter, 1 mil (25 μm) thick polyethylene (PE) film (obtained from the Pliant Corporation of Schaumburg, Ill.). The paper side of this structure was then covered with aluminum foil. The foil/paper/PSA/PE layered structure was mounted onto the open end of a 1,000 mL glass reaction kettle bottom (6947-1LBO, from Corning Glass of Corning, N.Y.) and sealed to the kettle's glass flange using aluminum sealing rings. The layered structure was oriented over the 11 cm opening with the PE film facing in and the aluminum facing out. The glass reaction kettle was modified with a silicone septum port to allow sampling of the 1,000 mL headspace. Headspace analysis was conducted by removing 250 μL of headspace volume from the 1,000 mL glass kettle and analyzing according to the technique of Example 3.
Then 200 μL of water was added through the septum port to the inside of the glass kettle. The headspace was analyzed for 1-MCP at 17, 25 and 90 hours after the injection of water using the technique employed in Example 3. At 17 hours, 25 hours, and 90 hours after injection of the water, the 1-MCP headspace concentration was 3.6 ppm, 7.0 ppm and 8.0 ppm of 1-MCP, respectively.

[3] = Example 4: 1-MCP headspace release versus coated surface area and time; conditions: 4.0 wt-% 1-MCP/c/α-CD coating, 20 μL water
Method: A 4.0 wt-% 1-MCP/c/α-CD blend was made according to the technique of Example 3. A rubber ink roller was used to deliver a coating having a nominal thickness of 0.3 μm to a 20 cm by 20 cm polyethylene extrusion coated paper sheet using the technique of Example 2. The coated sheet was cured according to the procedure of Example 2.
Using a razor blade, 26 cm^2, 52 cm^2, and 78 cm^2 samples were cut from the coated portion of the sheet. Each sample was placed in a 250 mL serum bottle. The bottles were sealed with TEFLON® faced silicone septa. Then 20 μL of deionized water was injected into each bottle. […] Bottle headspace analysis was conducted according to the technique of Example 3 at 0.17 hours, 0.5 hours, 1 hour, 2 hours, 4 hours and 24 hours after the injection of water.

## CC1=CC1 [1-MCP, 1-methylcyclopropene]
[1]; 0.5 wt-% 1-MCP/c/α-CD coating
  Headspace concentration of 1-MCP, Ave.: 0.09 ppm (v/v)
[1]; 1 wt-% 1-MCP/c/α-CD coating
  Headspace concentration of 1-MCP, Ave.: 0.20 ppm (v/v)
[1]; 2 wt-% 1-MCP/c/α-CD coating
  Headspace concentration of 1-MCP, Ave.: 0.56 ppm (v/v)
[1]; 4 wt-% 1-MCP/c/α-CD coating
  Headspace concentration of 1-MCP, Ave.: 1.1 ppm (v/v)
[2]; 200 μL water, 17 hours
  1-MCP headspace concentration: 3.6 ppm
[2]; 200 μL water, 25 hours
  1-MCP headspace concentration: 7.0 ppm
[2]; 200 μL water, 90 hours
  1-MCP headspace concentration: 8.0 ppm
[2]; no added water, two hours
  1-MCP headspace concentration: < 0.01 ppm
[3]; 26 cm^2, 250 mL bottle, 0.17 hrs
  Headspace concentration of 1-MCP: 0.25 ppm -v/v
[3]; 26 cm^2, 250 mL bottle, 0.5 hrs
  Headspace concentration of 1-MCP: 1.5 ppm -v/v
[3]; 26 cm^2, 250 mL bottle, 1 hr
  Headspace concentration of 1-MCP: 2.4 ppm -v/v
[3]; 26 cm^2, 250 mL bottle, 2 hrs
  Headspace concentration of 1-MCP: 3.7 ppm -v/v
[3]; 26 cm^2, 250 mL bottle, 4 hrs
  Headspace concentration of 1-MCP: 5.8 ppm -v/v
[3]; 26 cm^2, 250 mL bottle, 24 hrs
  Headspace concentration of 1-MCP: 9.6 ppm -v/v
[3]; 52 cm^2, 250 mL bottle, 0.17 hrs
  Headspace concentration of 1-MCP: 0.66 ppm - v/v
[3]; 52 cm^2, 250 mL bottle, 0.5 hrs
  Headspace concentration of 1-MCP: 2.2 ppm - v/v
[3]; 52 cm^2, 250 mL bottle, 1 hr
  Headspace concentration of 1-MCP: 4.2 ppm - v/v
[3]; 52 cm^2, 250 mL bottle, 2 hrs
  Headspace concentration of 1-MCP: 7.0 ppm - v/v
[3]; 52 cm^2, 250 mL bottle, 4 hrs
  Headspace concentration of 1-MCP: 9.9 ppm - v/v
[3]; 52 cm^2, 250 mL bottle, 24 hrs
  Headspace concentration of 1-MCP: 16.1 ppm - v/v
[3]; 78 cm^2, 250 mL bottle, 0.17 hrs
  Headspace concentration of 1-MCP: 1.7 ppm - v/v
[3]; 78 cm^2, 250 mL bottle, 0.5 hrs
  Headspace concentration of 1-MCP: 3.4 ppm - v/v
[3]; 78 cm^2, 250 mL bottle, 1 hr
  Headspace concentration of 1-MCP: 5.2 ppm - v/v
[3]; 78 cm^2, 250 mL bottle, 2 hrs
  Headspace concentration of 1-MCP: 7.9 ppm - v/v
[3]; 78 cm^2, 250 mL bottle, 4 hrs
  Headspace concentration of 1-MCP: 12.4 ppm - v/v
[3]; 78 cm^2, 250 mL bottle, 24 hrs
  Headspace concentration of 1-MCP: 20.0 ppm - v/v

Reference: patent US8414989B2, “Cyclodextrin compositions, articles, and methods” (Cellresin Technologies, LLC, priority 2011, dated 2013)
